{"source": "patent US20060019284A1", "about": "“Identification of polynucleotides for predicting activity of compounds that interact with and/or modulate protein tyrosine kinases and/or protein tyrosine kinase pathways in lung cancer cells” (priority 2004, published 2006)", "key": {"H23 lung cell line": {"test_system": "H23 lung cell line", "test": "In vitro cytotoxicity assay (MTS), IC50 determination", "format": "cell-based, human", "details": "H23 cells, 72 hours, mean of 4 tests, read-out: Mean IC50 (uM) to BMS-A", "procedure": "(§1) Cytotoxicity was assessed in cells by the MTS (3-(4,5-dimethylthiazol-2-yl)-5-(3-carboxy-methoxyphenyl)-2-(4-sulphenyl)-2H-tetrazolium, inner salt) assay (T. L. Riss et al., 1992, Mol. Biol. Cell, 3 (Suppl.): 184a).\n(§2) To carry out the assays, the lung cells were plated at 4,000 cells/well in 96 well microtiter plates, and 24 hours later, serially diluted drugs were added. The concentration range for the protein tyrosine kinase inhibitor compound BMS-A used in the cytotoxicity assay was from 5 μg/ml to 0.0016 μg/ml (roughly 10 μM to 0.0032 μM).\n(§3) The cells were incubated at 37° C. for 72 hours at which time the tetrazolium dye, MTS (333 μg/ml final concentration), in combination with the electron coupling agent phenazine methosulfate (25 μM final concentration), was added. A dehydrogenase enzyme in live cells reduces the MTS to a form that absorbs light and can be quantified spectrophotometrically at 492 nM. The greater the absorbency the greater the number of live cells. The results are expressed as an IC50, which is the drug concentration required to inhibit cell proliferation (i.e. absorbance at 492 nm) to 50% of that of untreated control cells. The mean IC50 and standard deviation (SD) from multiple tests for each cell line were calculated.\n(§4) The mean IC50 of the BMS-A protein tyrosine kinase inhibitor compound across the 23 human lund cell lines was calculated. […]"}, "H838 lung cell line": {"test_system": "H838 lung cell line", "test": "In vitro cytotoxicity assay (MTS), IC50 determination", "format": "cell-based, human", "details": "H838 cells", "procedure": "as §1, §2, §3, §4"}, "SW1271 lung cell line": {"test_system": "SW1271 lung cell line", "test": "In vitro cytotoxicity assay (MTS), IC50 determination", "format": "cell-based, human", "details": "SW1271 cells", "procedure": "as §1, §2, §3, §4"}, "NCI-H596 lung cell line": {"test_system": "NCI-H596 lung cell line", "test": "In vitro cytotoxicity assay (MTS), IC50 determination", "format": "cell-based, human", "details": "NCI-H596 cells", "procedure": "as §1, §2, §3, §4"}, "[1]": {"test_system": "panel of twenty-three human lung cell lines", "test": "In vitro cytotoxicity assay (MTS), whole panel", "format": "cell-based", "details": "across the 23 lung cell lines", "procedure": "as §1, §2, §3, §4"}, "SW900 lung cell line": {"test_system": "SW900 lung cell line", "test": "In vitro cytotoxicity assay (MTS), IC50 determination", "format": "cell-based, human", "details": "SW900 cells", "procedure": "as §1, §2, §3, §4"}, "H661 lung cell line": {"test_system": "H661 lung cell line", "test": "In vitro cytotoxicity assay (MTS), IC50 determination", "format": "cell-based, human", "details": "H661 cells", "procedure": "as §1, §2, §3, §4"}, "L2987 lung cell line": {"test_system": "L2987 lung cell line", "test": "In vitro cytotoxicity assay (MTS), IC50 determination", "format": "cell-based, human", "details": "L2987 cells", "procedure": "as §1, §2, §3, §4"}, "H522 lung cell line": {"test_system": "H522 lung cell line", "test": "In vitro cytotoxicity assay (MTS), IC50 determination", "format": "cell-based, human", "details": "H522 cells", "procedure": "as §1, §2, §3, §4"}, "H2347 lung cell line": {"test_system": "H2347 lung cell line", "test": "In vitro cytotoxicity assay (MTS), IC50 determination", "format": "cell-based, human", "details": "H2347 cells, 72 hours, mean of 4 tests, read-out: Mean IC50 (uM) to BMS-A", "procedure": "as §1, §2, §3, §4"}, "H226 lung cell line": {"test_system": "H226 lung cell line", "test": "In vitro cytotoxicity assay (MTS), IC50 determination", "format": "cell-based, human", "details": "H226 cells", "procedure": "as §1, §2, §3, §4"}, "Sk-LU-1 lung cell line": {"test_system": "Sk-LU-1 lung cell line", "test": "In vitro cytotoxicity assay (MTS), IC50 determination", "format": "cell-based, human", "details": "Sk-LU-1 cells", "procedure": "as §1, §2, §3, §4"}, "SK-MES-1 lung cell line": {"test_system": "SK-MES-1 lung cell line", "test": "In vitro cytotoxicity assay (MTS), IC50 determination", "details": "SK-MES-1 cells", "procedure": "as §1, §2, §3, §4"}, "H1155 lung cell line": {"test_system": "H1155 lung cell line", "test": "In vitro cytotoxicity assay (MTS), IC50 determination", "format": "cell-based, human", "details": "H1155 cells, 72 hours, mean of 3 tests, read-out: Mean IC50 (uM) to BMS-A", "procedure": "as §1, §2, §3, §4"}, "H441 lung cell line": {"test_system": "H441 lung cell line", "test": "In vitro cytotoxicity assay (MTS), IC50 determination", "format": "cell-based, human", "details": "H441 cells", "procedure": "as §1, §2, §3, §4"}, "A549 cells": {"test_system": "A549 cells", "test": "Drug (BMS-A) treatment of A549 cells and expression profiling (HG-U133 arrays)", "format": "cell-based, human", "details": "A549, 0.4 μM, 4 and 24 hours", "protocol": "To identify polynucleotides regulated by a protein tyrosine kinase inhibitor compound, e.g., BMS-A, a lung cell line A549 was treated with or without the BMS-A compound (0.4 μM) in 0.1% DMSO for 4 and 24 hours. Expression profiling was performed, and the data were analyzed using GeneChip® Expression Analysis software MAS 5.0 (Affymetrix, Santa Clara, Calif.). The polynucleotide expression of a cell line treated with drug was compared using pair-wise analysis to the polynucleotide expression of the cell line without drug treatment. A change in p-value was calculated, indicating an increase, decrease or no change in polynucleotide expression. When the p-value was less than 0.0025, the change was considered significant. Duplicated experiments were performed, and analysis of 4 cross comparisons were performed.\nThe lung cells were grown under standard cell culture conditions: RPMI 1640 supplemented to contain 10% fetal bovine serum, 100 IU/ml penicillin, […] streptomycin, 2 mM L-glutamine and 10 mM Hepes (all from GibcoBRL, Rockville, Md.). RNA was isolated from the cultured cells, either treated or untreated with drug (i.e., the protein tyrosine kinase inhibitor compound) at 50-70% confluence using the RNeasy™ kits commercially available from Qiagen, Valencia, Calif. The quality of the RNA was assessed by measuring the 28s:18s ribosomal RNA ratio using an Agilent 2100 bioanalyzer (Agilent Technologies, Rockville, Md.). The concentration of total RNA was determined spectrophotometrically. 10 μg of total RNA from each cell line was used to prepare biotinylated probe according to the Affymetrix Genechip® Expression Analysis Technical Manual, 2001. Targets were hybridized to Affymetrix high density oligonucleotide array human HG-U133 set chips (Affymetrix, Santa Clara, Calif.). The arrays were then washed and stained using the GeneChip® Fluidics station according to the manufacture's instructions (Affymetrix Genechip® Technical Manual, 2001). The HG-U133 set contains 2 Genechip® arrays, which contain approximately 45,000 probe sets representing more than 39,000 transcripts derived from approximately 33,000 well-substantiated human polynucleotides.\nA549 cells were seeded in a 10 cm^2 culture plate in cell culture medium as described herein and were cultured for 24 hours at 37° C. The medium was then changed to medium containing drug (0.4 μM BMS-A compound in 0.1% DMSO, Sigma); the cells were incubated for 4 hour or 24 hours, and then lysed for RNA isolation. The expression profiling was performed as described above and data were analyzed using GeneChip® Expression Analysis software MAS 5.0 (Affymetrix, Santa Clara, Calif.). The expression data of a drug treated cell line was compared pair-wise to data from the same cell line untreated with drug. A change in p-value was calculated, indicating an increase, decrease or no change in polynucleotide expression. When the p-value was less than 0.0025, the change was considered to be significant. This analysis was performed for duplicated experiments"}, "[2]": {"details": "MTS, 72 hours, mean of 4 tests, read-out: Mean IC50 (uM) to BMS-A"}, "[3]": {"details": "IC50 relative to mean IC50 of all 23 cell lines"}, "[4]": {"details": "MTS, 72 hours, mean of 2 tests, read-out: Mean IC50 (uM) to BMS-A"}, "[5]": {"details": "MTS, 72 hours, mean of 3 tests, read-out: Mean IC50 (uM) to BMS-A"}}, "data": [{"smiles": "Cc1nc(Nc2ncc(C(=O)Nc3c(C)cccc3Cl)s2)cc(N2CCN(CCO)CC2)n1", "note": "[BMS-A, N-(2-chloro-6-methylphenyl)-2-[[6-[4-(2-hydroxyethyl)-1-piperazinyl]-2-methyl-4-pyrimidinyl]amino]-5-thiazolecarboxamide]", "values": [{"measurement": "IC50", "setting": "H23 lung cell line", "value": "≥ 1.02", "unit": "µM"}, {"measurement": "IC50", "setting": "H838 lung cell line; [2]", "value": 0.072, "unit": "µM"}, {"measurement": "Classification", "setting": "H838 lung cell line; [3]", "value": "Sensitive (cell lines having an IC50 below the mean IC50 were defined as sensitive to the compound)"}, {"measurement": "IC50", "setting": "SW1271 lung cell line; [4]", "value": 0.242, "unit": "µM"}, {"measurement": "Classification", "setting": "SW1271 lung cell line; [3]", "value": "Sensitive (cell lines having an IC50 below the mean IC50 were defined as sensitive to the compound)"}, {"measurement": "IC50", "setting": "NCI-H596 lung cell line; [4]", "value": 0.124, "unit": "µM"}, {"measurement": "Classification", "setting": "NCI-H596 lung cell line; [3]", "value": "Sensitive (cell lines having an IC50 below the mean IC50 were defined as sensitive to the compound)"}, {"measurement": "variation in the IC50 values among the twenty-three lung cell lines", "setting": "[1]", "value": "> 100", "unit": "fold"}, {"measurement": "IC50", "setting": "SW900 lung cell line; [5]", "value": 0.507, "unit": "µM"}, {"measurement": "Classification", "setting": "SW900 lung cell line; [3]", "value": "Sensitive (cell lines having an IC50 below the mean IC50 were defined as sensitive to the compound)"}, {"measurement": "IC50", "setting": "H661 lung cell line; [2]", "value": 0.123, "unit": "µM"}, {"measurement": "Classification", "setting": "H661 lung cell line; [3]", "value": "Sensitive (cell lines having an IC50 below the mean IC50 were defined as sensitive to the compound)"}, {"measurement": "IC50", "setting": "L2987 lung cell line; [2]", "value": 0.037, "unit": "µM"}, {"measurement": "Classification", "setting": "L2987 lung cell line; [3]", "value": "Sensitive (cell lines having an IC50 below the mean IC50 were defined as sensitive to the compound)"}, {"measurement": "IC50", "setting": "H522 lung cell line; [5]", "value": 0.215, "unit": "µM"}, {"measurement": "Classification", "setting": "H522 lung cell line; [3]", "value": "Sensitive (cell lines having an IC50 below the mean IC50 were defined as sensitive to the compound)"}, {"measurement": "IC50", "setting": "H2347 lung cell line", "value": "≥ 1.02", "unit": "µM"}, {"measurement": "IC50", "setting": "H226 lung cell line; [5]", "value": 0.058, "unit": "µM"}, {"measurement": "Classification", "setting": "H226 lung cell line; [3]", "value": "Sensitive (cell lines having an IC50 below the mean IC50 were defined as sensitive to the compound)"}, {"measurement": "IC50", "setting": "Sk-LU-1 lung cell line; [2]", "value": 0.014, "unit": "µM"}, {"measurement": "Classification", "setting": "Sk-LU-1 lung cell line; [3]", "value": "Sensitive (cell lines having an IC50 below the mean IC50 were defined as sensitive to the compound)"}, {"measurement": "Classification", "setting": "SK-MES-1 lung cell line; [3]", "value": "Sensitive (cell lines having an IC50 below the mean IC50 were defined as sensitive to the compound)"}, {"measurement": "IC50", "setting": "SK-MES-1 lung cell line; read-out: Mean IC50 (uM) to BMS-A, MTS, 72 hours, mean of 3 tests", "value": 0.151, "unit": "µM"}, {"measurement": "IC50", "setting": "H1155 lung cell line", "value": "≥ 1.02", "unit": "µM"}, {"measurement": "IC50", "setting": "H441 lung cell line; [2]", "value": 0.141, "unit": "µM"}, {"measurement": "Classification", "setting": "H441 lung cell line; [3]", "value": "Sensitive (cell lines having an IC50 below the mean IC50 were defined as sensitive to the compound)"}, {"measurement": "Modulated by BMS-A", "setting": "A549 cells; Gene No. 12 peroxisomal biogenesis factor 6 (NM_000287)", "value": "Yes"}, {"measurement": "Modulated by BMS-A", "setting": "A549 cells; Gene No. 24 cysteine-rich, angiogenic inducer, 61 (NM_001554)", "value": "Yes"}, {"measurement": "Modulated by BMS-A", "setting": "A549 cells; Gene No. 26 fibroblast growth factor 2 (basic) (NM_002006)", "value": "Yes"}, {"measurement": "Modulated by BMS-A", "setting": "A549 cells; Gene No. 35 polymerase I and transcript release factor (NM_012232)", "value": "Yes"}, {"measurement": "Modulated by BMS-A", "setting": "A549 cells; Gene No. 39 ESTs, Weakly similar to hypothetical protein FLJ20489 (AI004009)", "value": "Yes"}, {"measurement": "Modulated by BMS-A", "setting": "A549 cells; Gene No. 45 Rho GDP dissociation inhibitor (GDI) beta (NM_001175)", "value": "Yes"}, {"measurement": "Modulated by BMS-A", "setting": "A549 cells; Gene No. 47 FOS-like antigen 1 (NM_005438)", "value": "Yes"}, {"measurement": "Modulated by BMS-A", "setting": "A549 cells; Gene No. 58 collagen, type VI, alpha 1 (NM_001848)", "value": "Yes"}, {"measurement": "Modulated by BMS-A", "setting": "A549 cells; Gene No. 64 KIAA1237 protein (AI148659)", "value": "Yes"}, {"measurement": "Modulated by BMS-A", "setting": "A549 cells; Gene No. 69 a disintegrin-like and metalloprotease (reprolysin type) with thrombospondin type 1 motif, 1 (NM_006988)", "value": "Yes"}, {"measurement": "Modulated by BMS-A", "setting": "A549 cells; Gene No. 72 serum-inducible kinase (NM_006622)", "value": "Yes"}, {"measurement": "Modulated by BMS-A", "setting": "A549 cells; Gene No. 90 hypothetical protein FLJ20607 (NM_017899)", "value": "Yes"}, {"measurement": "Modulated by BMS-A", "setting": "A549 cells; Gene No. 98 germ cell specific Y-box binding protein (NM_015982)", "value": "Yes"}, {"measurement": "Modulated by BMS-A", "setting": "A549 cells; Gene No. 105 J domain containing protein 1 (NM_021800)", "value": "Yes"}, {"measurement": "Modulated by BMS-A", "setting": "A549 cells; Gene No. 110 inhibitor of DNA binding 2, dominant negative helix-loop-helix protein (NM_002166)", "value": "Yes"}, {"measurement": "Modulated by BMS-A", "setting": "A549 cells; Gene No. 115 neuronal cell adhesion molecule (NM_005010)", "value": "Yes"}]}]}
